Patent EP3932395A1, “STABLE EMULSION CONTAINING AN ACTIVE PHARMACEUTICAL INGREDIENT BASED ON N(3-METHYL-2-OXO-2,3-DIHYDROBENZO[D]OXAZOL-5-YL)DODECANAMIDE, PRODUCTION AND USE” (Dr. August Wolff GmbH & Co. KG Arzneimittel, priority 2020, dated 2022)

Assays:
[1] = Solubility screening with standard cream-base excipients; assay type: physicochemical; settings: Ph.Eur. terms, 15°C to 25°C
Experimental: A solubility screening with standard excipients for preparation of a cream base (glycerol monostearate 60, cetyl alcohol, MCTs, paraffin, macrogol-20-glycerol monostearate, propylene glycol and water) was performed.
The following procedure was used to prepare the samples for solubility screen: • 1. Weigh out the API • 2. Add individual excipient (both solid and liquid excipients) • 3. Slurry either by roller at RT if liquid excipient, or by shaker at 60°C if the excipient was solid • 4. Shake or sonicate occasionally • 5. Check solubility visually, if API not dissolved, add more excipient • 6. Repeat steps 3 to 5 • 7. Samples prepared in steps 1 through 6 were centrifuged and removed from the top for HPLC. • 8. Dilute each sample to 1 mL. Only samples fully dissolved were checked by HPLC.
In the general notice of Ph.Eur. in statements of solubility the terms used have the following significance, referred to at a temperature between 15°C and 25°C.

[2] = Simultaneous Thermal Analysis (STA = TGA + DTA); assay type: physicochemical; settings: heated 10°C/min from 30°C to 300°C, nitrogen purge
Experimental: Simultaneous Thermal analysis (STA = TGA (Thermogravimetric Analysis) + DTA (Differential Thermal Analysis)) was performed in order to test the stability of N-(3 -methyl-2-oxo-2,3-dihydrobenzo[d]oxazol-5-yl)dodecanamide (hereinafter "the API") while heating. Approximately 10 mg of the sample was weighed into a ceramic crucible and placed into the chamber of a Perkin-Elmer STA 600 TGA/DTA analyzer at ambient temperature. The sample was then heated at a rate of 10°C/min from 30°C up to 300°C during which time the change in weight was monitored as well as DTA signal. The purge gas used was nitrogen at a flow rate of 20 cm^3/min.

[3] = Particle size distribution of the API by laser diffraction, pre and post jet-mill micronization; assay type: physicochemical
Text: A Sturtevant qualification micronizer was used to reduce the particle size of the API. The mill was operated with tangential flow (i.e. the nitrogen supply and drug are fed in the same direction in the milling chamber). The material of API as received was fed into the jet mill using a Venturi feed system, where air was used to draw the feed material into the milling chamber. A product filter bag was affixed to the outlet of the mill, through which the exhausts and the milled drug substance collects. The milling conditions were set as follows: Grind gas: Dry nitrogen gas; Grind pressure: 80 psi; Feed pressure: 80 psi; Room conditions: Ambient.
A representative sample, dispersed at an adequate concentration in a suitable liquid, is passed through the beam of a monochromatic light source, preferably from a laser. The light scattered by the particles at various angles is measured by a multi-element detector, and numerical values relating to the scattering pattern are then recorded for subsequent analysis. These numerical scattering values are then transformed, using an appropriate optical model and mathematical procedure, to yield the proportion of total volume to a discrete number of size classes forming a volumetric particle size distribution (e.g., dso describes a particle diameter corresponding to 50% of the cumulative undersize distribution, i.e. 50% of the particles have a diameter that is smaller than a threshold value).
The Particle Size Distribution was determined using Malvern Mastersizer MicroPlus particle size analyzer (Malvern Instruments, UK) and 1% (v/v) Tween 80 in deionized water was used as dispersant for this experiment. The equipment was turned on and the following conditions were set: Analysis Model: Polydisperse; Presentation Code: Frauenhofer (5$$D); Stirring speed: 10 o'clock dial position.
The equipment was left to warm up for about 1 hour and approximately 100 mL of the dispersant was added to the sample dispersion unit. Backgrounds were first measured using the dispersant. A fresh sample was prepared by adding -20 to 50 mg API into ∼2 to 3 mL of the dispersant and this was sonicated for ∼5 minutes. The sample was added dropwise into the sample dispersion unit while stirring the dispersant until a suitable obscuration value was achieved and the particle size distribution could be measured. A minimum of three measurements were made for the pre and post micronized samples.
Alternatively, the Malvern Mastersizer 2000 can be used for the determination of Particle Size Distribution. In this case water is used as dispersant.
For upscaling purposes, the micronization process was transferred to a jet mill AS200 (Hosokawa Alpine, Germany) on which the following experiments were performed. Dry nitrogen and air were used as grind gas in order to determine the gas which is more suitable for the micronization process.

[4] = Forced degradation studies; assay type: physicochemical
Text: Solid samples and sample solutions of N-(3-methyl-2-oxo-2,3-dihydrobenzo[d]oxazol-5-yl)dodecanamide were exposed to stress agents for a defined period and influence of stress on the compound were studied (i.e. the degradation).
The evaluation was expressed as relative percent with respect to t=0 result of unstressed sample (mass balance, % of peak areas).
The stress conditions were adjusted in such way that the degradation varied in a range of approx. 1 to 5% generated impurities.
The following stress conditions were applied: acidic and basic hydrolysis, oxidizing agent, temperature and photolytic conditions.
Solid sample - daylight, laboratory condition (VIS) - exposure time 7 days Solid sample - UV 254 nm, laboratory condition (UV) - exposure time 6 days
Solid sample, 70°C - exposure time 6 days
Sample solution, 3% H2O2, laboratory condition - exposure time 24 h
Sample solution, 0.1M HCI, 50°C - exposure time 24 h
Sample solution, 0.01-0.05M NaOH, 25°C (1M NaOH, 50°C, 1 h) - exposure time 45 min

[5] = system: Human lymphoma U937 cells; experiment: Cellular uptake of [3H]-AEA; assay type: cell-based; settings: U-937, 100 nM AEA, 15 min pre-incubation, 15 min at 37°C
Experimental: Human lymphoma U937 cells were grown in RPMI 1640 medium (Invitrogen, Basel, Switzerland) supplemented with 10% fetal bovine serum, […] fungizone (amphotericin B), 100 units/mL penicillin, 100 µg/mL streptomycin, and 2 mM L-glutamine (all from Invitrogen) and selected for the cellular AEA uptake assay. 2.5 x 10^6 cells were collected and suspended in 250 µL of RPMI 1640 medium (Invitrogen, Basel, Switzerland) at 37°C using glass silanized vials. Cells were pre-incubated 15 min at 37°C in presence of the test compound in a concentration range of 10^-11 - 10^-5 M or in presence of the same amount (5 µL) of vehicle control (DMSO). Then a mixture of 0.5 nM [^3H]-AEA (60 Ci/mmol) (American Radiolabeled Chemicals, Inc., San Louis, MO, US) and 99.5 nM of nonradioactive AEA (Tocris Cookson Ltd., Bristol, UK) resulting in a final concentration of 100 nM AEA was added and samples were incubated at 37°C for another 15 minutes. The reaction was stopped by rapid filtration over UniFilter®-96 GF/C (Perkin Elmer, Boston MA, US) pre-soaked with PBS 0.25% BSA (w/v). […] Radioactivity was measured using a Perkin Elmer 1450 Microbeta TRILUX liquid scintillation counter. Results were expressed as % of AEA uptake versus cells treated with solvent and the EC50 and IC50 values were calculated from the sigmoidal curves, which were generated using the GraphPad Prism 5.0 (GraphPad Software, San Diego, CA, US).

[6] = Forced degradation studies; assay type: physicochemical; settings: 0.05M NaOH, 5 min, room temperature
[7] = first batch (5 g), post micronization, mean ± SD
[8] = first batch (5 g), pre micronization, mean ± SD
[9] = second batch (200 g), post micronization, mean ± SD
[10] = second batch (200 g), pre micronization, mean ± SD

CCCCCCCCCCCC(=O)Nc1ccc2oc(=O)n(C)c2c1 [API, N-(3-methyl-2-oxo-2,3-dihydrobenzo[d]oxazol-5-yl)dodecanamide]
solubility ([1]; in MCTs): Very slightly soluble (from 1,000 to 10,000)
solubility ([1]; in propylene glycol): Very slightly soluble (from 1,000 to 10,000)
solubility ([1]; in water): Practically insoluble (more than 10,000)
temperature up to which the material remained stable [2]: ~190 °C
d90 ([3]; 150 g batch, jet mill AS200, normal air as grind gas, post micronization): 7.43 µm
d90 ([3]; 200 g batch, jet mill AS200, dry nitrogen as grind gas, post micronization): 8.92 µm
d10 [3, 7]: 1.11±0.05 µm
d50 [3, 7]: 2.97±0.05 µm
d90 [3, 7]: 6.76±0.36 µm
d10 [3, 8]: 7.53±1.55 µm
d50 [3, 8]: 33.71±18.61 µm
d90 [3, 8]: 106.06±56.69 µm
d90 ([3]; jet mill AS200, batch size 0.913 kg): 4.8 µm
d90 ([3]; jet mill AS200, batch size 1.035 kg): 5.5 µm
d90 ([3]; jet mill AS200, batch size 1.073 kg): 4.4 µm
d90 ([3]; jet mill AS200, batch size 3.60 kg): 7.6 µm
d10 [3, 9]: 1.96±0.11 µm
d50 [3, 9]: 4.98±0.10 µm
d90 [3, 9]: 10.29±0.44 µm
d10 [3, 10]: 26.90±3.65 µm
d50 [3, 10]: 69.71±9.95 µm
d90 [3, 10]: 127.67±18.59 µm
degradation under basic hydrolysis ([4]; 1M NaOH, 50°C, after 1 hour): completely degraded
time for which the stressed sample was stable ([4]; 3% H2O2 solution): at least 24 hours
stability conclusion ([4]; acidic condition): stable
stability conclusion ([4]; alkaline conditions): not stable
stability conclusion ([4]; oxidizing condition (H2O2)): stable
stability conclusion ([4]; photolytic conditions (VIS, UV)): photo stable
mass balance ([4]; sample solution, 0.1M HCl, 50°C, 24 h): 101.2%
mass balance ([4]; sample solution, 3% H2O2, 24 h): 98%
mass balance ([4]; solid sample, 70°C, 6 days): 102.6%
mass balance ([4]; solid sample, UV 254 nm, 6 days, relative to t=0 unstressed sample): 102.4%
mass balance ([4]; solid sample, daylight (VIS), 7 days, relative to t=0 unstressed sample): 100.2%
stability conclusion ([4]; temperature conditions (70°C)): thermo stable
EC50 [5]: 4 nM
purity of the measured sample after basic hydrolysis [6]: 89.50 % A
